Here are results for 20 molecules from patent US6958141B2, “Rhenium and technetium complexes containing a hypoxia-localizing moiety” (Bracco International B.V., priority 1991, dated 2005).

The nature of series [1]: Determination of reduction potential by cyclic voltammetry. The class given is physicochemical. The note with it: for Epc(V): cyclic voltammetry in dimethylformamide at Hg, vs. Ag/AgNO3; for Reduction process: cyclic voltammetry in dimethylformamide. On the procedure:
The reduction potentials of misonidazole, ^99TcO(PnAO), and ^99Tc-hypoxia-localizing tracers were determined by cyclic voltammetry (C.V.) in dimethylformamide. […] The reference electrode was Ag/AgNO3 with an acetonitrile filling solution saturated with LiCl. The counter electrode was a platinum wire. Voltamograms at mercury were determined at scan rates of 50, 100, 200, and 500 mV/s.
The solutions used in C.V. studies contained test sample at a concentration of 0.2-0.7 mM and tetrabutylammonium tetrafluoroborate (Bu4NBF4) or tetrabutylammonium hexafluorophosphate (Bu4NPF6) supporting electrolyte at a concentration of 0.1M. The solution was deoxygenated by bubbling solvent-saturated nitrogen or argon through the solution for 15 minutes. Variations in the reference potential were accounted for by determining the C.V. of a Ru(acac)3 standard on a daily basis.

Series [2] has as its system hypoxic ischemic border zone. The experiment in a line: Rabbit focal myocardial ischemia model (LAD occlusion), double-label autoradiography. The note with it: permanent LAD coronary artery ligation, intravenous tracer, heart sections. The class given is in vivo. The method, then:
A model of focal myocardial ischemia in the rabbit was developed, using permanent ligation of the left anterior descending (LAD) coronary artery. The model consisted of two studies. In the first, relative regional myocardial blood flow (MBF) and relative regional myocardial rate of glucose metabolism (MMRgl) were determined by autoradiography using a double-label study with the flow tracer ^99mTcCl(CDO)3MeB (R. K. Narra et al., J. Nucl. Med., 1989; 30:1830-1837) and ^14C-deoxy-glucose for MMRgl (L. Sokoloff et al., J. Neurochem., 1977, 28, 897-916). ^14C-deoxyglucose and the ^99mTc-hypoxia-localizing tracer were administered to a second group of rabbits with LAD coronary artery occlusion.
After the surgical preparation and 20 minutes of LAD occlusion, ^14C-deoxyglucose (130-150 μCi) was injected as an intravenous bolus, and timed arterial blood samples were obtained. Twenty-five minutes later, ^99mTcCl(CDO)3MeB (10-12 mCi) was administered intravenously. Five minutes later, the rabbits were sacrificed by intravenous injection of Nembutal and potassium chloride. The heart was excised, frozen in liquid Freon-22, and 20 μm coronal sections obtained with a Microtome. Autoradiographs were obtained on all sections. For the first exposure (˜14 hours duration) of Kodak XAR film, extra heavy duty aluminum foil was interposed between the tissue and film to block completely the radiation emanating from ^14C to obtain the MBF information derived from ^99mTcCl(CDO)3MeB alone. After three days (to allow for decay of ^99mTc); a second autoradiograph was obtained without foil. The second exposure lasted 6-8 days, and,provided an image of the regional distribution of ^14C-deoxyglucose.
In a separate experiment using the rabbit LAD occlusion model and the double-label autoradiography procedures described above, the performance of the ^99mTc complex of the ligand described in Example 1 was compared to that of ^14C-misonidazole.

The test system of series [3] is Calcium-tolerant ventricular myocytes. The experiment in a line: Isolated cardiac myocyte studies, retention of radioactivity. The note with it: isolated myocytes. The class given is cell-based, male Sprague Dawley rats. From the text:
Calcium-tolerant ventricular myocytes were isolated from hearts of male Sprague Dawley rats (200 g) according to the procedure of Wittenberg and Robinson (B. A. Wittenberg and T. F. Robinson, Cell Tissue Res., 216: 231, 1981) with modifications described previously (W. Rumsey, C. Schlosser, E. M. Nuutinen, M. Robiolio and D. F. Wilson, J. Biol. Chem., 265 (26): 15392, 1990). Cells were used immediately following morphological analysis (using a hemocytometer) of viability and were maintained at 37° C. during the experiments. The number of quiescent, rod shaped cells ranged from 70-90% within a total population of 5-9×10^6 cells.
The isolated myocytes were maintained in either a normoxic, hypoxic or anoxic state. Hypoxia was induced by providing an atmosphere of argon atop of the cells and sealing the flask during the incubation period. Glucose oxidase plus catalase (5/5 mg) was added to argon treated cells to provide anoxia. Cells were suspended (6.5-7.5×10^4 cells/ml) in isolation media and aliquots were added to incubation vials maintained at 37° C.
After incubation with a test compound, myocytes were deproteinated with 1% ice-cold perchloric acid and centrifuged at 12,000 rpm for 30 sec. The supernatent was separated from the pellet and each counted using a LKB 1282 gamma counter. Alternatively, myocytes were separated from the suspending media by passing the cells through 99% dibutyl phthalate by centrifugation at 12,000 rpm for 30 sec. The three phases were separated and counted as described above. Results for the Tc-99m complex of the compound in Example 1 are given below:
Values represent means ±S.E.M. for the number of experiments noted in the parentheses. The values are the percent of total radioactivity represented by each case. PCA pellet=perchloric acid-precipitated pellet which represents the activity associated with proteins/membranes. Cell pellet=whole cells passed through a layer of dibutyl phthalate (oil).
Several Tc-99m complexes were examined in isolated myocytes using the protocol described above. The percentage of activity retained in the cell pellet was determined under anoxic and normoxic states.

In general, melting point refers to the temperature of the solid-liquid transition.

With `COCC(O)Cn1ccnc1[N+](=O)[O-]` (centres unmarked) [Misonidazole, reference compound], in series [1] (first or only reduction listed), the “Epc(V)” value is recorded as −1.49 V and the Reduction process result is on record as “reversible”. `CC(=NO)C(C)(C)NCCCNC(C)(C)C(Cn1c(C)cnc1[N+](=O)[O-])=NO` [Example 28, 3,3,9,9-Tetramethyl-1-(5-methyl-2-nitro-1H-imidazol-1-yl)-4,8-diazaundecane-2,10-dione dioxime]: the melting point is 150 to 152 °C.

`CC1=[N+](O)[99Tc-]23(=[O])[N](CCC[N]2C1(C)C)C(C)(C)C(CCn1ccnc1[N+](=O)[O-])=[N+]3[O-]` [Example 19, [^99Tc]Oxo[[4,4,10,10-tetramethyl-1-(2-nitro-1H-imidazo-1-yl)-5,9-diazadodecane-3,11-dione dioximato](3-)-N,N′,N″,N′″]technetium(V)]: in series [1] (first or only reduction listed), the “Epc(V)” value is −1.53 V and the Reduction process entry is recorded as “reversible”. In series [1] (second reduction listed), the “Epc(V)” value is −2.07 V and the Reduction process result is “irreversible”.

The molecule `CC(=NO)C(C)(C)NCC(O)CNC(C)(C)C(CCn1ccnc1[N+](=O)[O-])=NO` (centres unmarked) [Example 32, 6-Hydroxy-3,3,9,9-tetramethyl-12-(2-nitro-1H-imidazol-1-yl)-4,8-diazadodecane-2,10-dione dioxime] showed a melting point of 62 to 64 °C.

`CC(=NO)C(C)(C)NCCCNC(C)(C)C(CCn1ccnc1[N+](=O)[O-])=NO` [Example 3, 4,4,10,10-Tetramethyl-1-(2-nitro-1H-imidazo-1-yl)-5,9-diazadodecane-3,11-dione dioxime]: in series [1] (first or only reduction listed), the “Epc(V)” value is −1.54 V and the Reduction process entry is reported as “reversible”.

Take `CC(=NO)C(C)(C)NCCCNC(C)(C)C(COCC(O)Cn1ccnc1[N+](=O)[O-])=NO` (centres unmarked) [Example 31, 3,3,9,9-Tetramethyl-1-[2-hydroxy-3-(2-nitro-1H-imidazol-1-yl)propoxy]-4,8-diazaundecane-2,10-dione dioxime]: the melting point was in the range of 134 to 135 °C. The molecule `COC(=O)CCC(=NO)C(C)(C)NCCCNC(C)(C)C(Cn1ccnc1[N+](=O)[O-])=NO` [Example 24, 12-Methoxycarbonyl-3,3,9,9-tetramethyl-1-(2-nitro-1H-imidazol-1-yl)-4,8-diazadodecane-2,10-dione dioxime] gave a melting point of 137 to 139 °C. For `CC(=NO)C(C)(C)NCC(O)CNC(C)(C)C(Cn1ccnc1[N+](=O)[O-])=NO` (centres unmarked) [Example 4, 6-Hydroxy-3,3,9,9-tetramethyl-1-(2-nitro-1H-imidazo-1-yl)-4,8-diazaundecane-2,10-dione dioxime], in series [1] (first or only reduction listed), the “Epc(V)” value is −1.51 V and the Reduction process entry is recorded as “reversible”. Take `CC(=NO)C(C)(C)NCC(CNC(C)(C)C(C)=NO)NC(=O)Cn1ccnc1[N+](=O)[O-]` (centres unmarked) [Example 5, 3,3,9,9-Tetramethyl-6-((2-nitro-1H-imidazo-1-yl)acetamido)-4,8-diazaundecane-2,10-dione dioxime]: in series [1] (first or only reduction listed), the “Epc(V)” value was −1.52 V and the Reduction process entry is “reversible”. Turning to ^14C-misonidazole, the “regional myocardial distribution pattern (autoradiography)” value in series [2] is “high uptake in the hypoxic border zone of the ischemic territory and low uptake in normoxic regions”. Take `CC1=[N+](O)[99Tc-]23(=[O])[N](CCC[N]2C1(C)C)C(C)(C)C(Cn1cnc([N+](=O)[O-])c1)=[N+]3[O-]` [Example 6a, [^99Tc]Oxo[[3,3,9,9-tetramethyl-1-(4-nitro-1H-imidazo-1-yl)-4,8-diazaundecane-2,10-dione dioximato]-(3-)-N,N′,N″,N′″]technetium(V)]: the “Epc(V)” value in series [1] (first or only reduction listed) is −1.81 V; in series [1] (second reduction listed), −2.02 V. For the same molecule, the Reduction process result in series [1] (first or only reduction listed) is “reversible”; in series [1] (second reduction listed), “irreversible”. `CC(=NO)C(C)(C)NCC(C)CNC(C)(C)C(Cn1ccnc1[N+](=O)[O-])=NO` (centres unmarked) [Example 23, 3,3,6,9,9-Pentamethyl-1-(2-nitro-1H-imidazol-1-yl)-4,8-diazaundecane-2,10-dione dioxime] gave a melting point of 167 to 168 °C. As to `CC(=NO)C(C)(C)NCC(F)(F)CNC(C)(C)C(CCn1ccnc1[N+](=O)[O-])=NO` [Example 30, 6,6-Difluoro-3,3,9,9-tetramethyl-12-(2-nitro-1H-imidazol-1-yl)-4,8-diazadodecane-2,10-dione dioxime], the melting point is 90 to 92 °C.

On to `CC(=NO)C(C)(C)NCCCNC(C)(C)C(Cn1ccnc1[N+](=O)[O-])=NO` [Example 1, 3,3,9,9-Tetramethyl-1-(2-nitro-1H-imidazo-1-yl)-4,8-diazaundecane-2,10-dione dioxime], for which, in series [1] (first or only reduction listed), the “Epc(V)” value is −1.52 V and the Reduction process entry is listed as “reversible”.

With `CC(=NO)C(C)(C)NCC(CNC(C)(C)C(C)=NO)CC(O)Cn1ccnc1[N+](=O)[O-]` (centres unmarked) [Example 26, 3,3,9,9-Tetramethyl-6-[2-hydroxy-3-(2-nitro-1H-imidazol-1-yl)propyl]-4,8-diazaundecane-2,10-dione dioxime], the melting point is 185 to 187 °C.

For `CCOCC(=NO)C(C)(C)NCCCNC(C)(C)C(Cn1ccnc1[N+](=O)[O-])=NO` [Example 25, 11-Ethoxy-3,3,9,9-tetramethyl-1-(2-nitro-1H-imidazol-1-yl)-4,8-diazaundecane-2,10-dione dioxime], the melting point is 122 to 123 °C. Same read-out and setting: with `CC(=NO)C(C)(C)NCCCNC(C)(C)C(Cn1cc(C)nc1[N+](=O)[O-])=NO` [Example 27, 3,3,9,9-Tetramethyl-1-(4-methyl-2-nitro-1H-imidazol-1-yl)-4,8-diazaundecane-2,10-dione dioxime] the figure was 140 to 141 °C. For the molecule `Cc1ncc([N+](=O)[O-])n1CCO` [Metronidazole, reference compound], in series [1] (first or only reduction listed), the “Epc(V)” value is recorded as −1.62 V and the Reduction process entry was “reversible”. Taken in the same sequence, the figures for `CC(=NO)C(C)(C)NCCCNC(C)(C)C(Cn1cnc([N+](=O)[O-])c1)=NO` [Example 2, 3,3,9,9-Tetramethyl-1-(4-nitro-1H-imidazo-1-yl)-4,8-diazaundecane-2,10-dione dioxime] were −1.81 V and “reversible”. Consider `CC(=NO)C(C)(C)NCC(O)CNC(C)(C)C(C)=NO` (centres unmarked) [^99mTc Complex of 6-hydroxy-PnAO, 6-hydroxy PnAO(6-hydroxy-3,3,9,9-tetramethyl-4,8-diazaundecane-2,10-dione dioxime), metal not drawn, reference compound], for which, in series [3] (% in Cell Pellet), the Anoxia/normoxia ratio was found to be 1.3. Besides, in series [3] (several Tc-99m complexes), the “% in Cell Pellet, Anoxia” value is recorded as 9.2 (n = 1) % and the “% in Cell Pellet, Normoxia” value is reported as 7.1 (n = 1) %.
